Assay [1] in a line: Inhibition of Class 1 histone deacetylase isolated from human HeLa cell nuclear extracts using Boc-Lys (acetyl)-AMC as substrate preincubated for 10 mins followed by substrate addition measured after 30 mins by fluorescence assay. It counts as cell-based.
Assay [2] in a line: Cytotoxicity against human U266 cells assessed as growth inhibition after 48 hrs by MTT assay. It is filed as functional, cell-based. The conditions noted are these: U-266, 48 h. For orientation: Formazan colour is commonly taken as a measure of viable cells.
The test system of another assay is HEL. As to the kind of experiment: Cytotoxicity against human HEL cells assessed as growth inhibition after 48 hrs by MTT assay. It is filed as functional, cell-based.
Assay [3] has as its system PC-3. The assay can be described thus: Inhibition of Class 1 histone deacetylase in human PC3 cells using Boc-Lys (acetyl)-AMC as substrate preincubated for 3 hrs followed by substrate addition measured after 3 hrs by fluorescence assay. It counts as cell-based.
The test system of assay [4] is PC-3. The assay can be described thus: Inhibition of Class 2a histone deacetylase in human PC3 cells using Boc-Lys (triflouroacetyl)-AMC as substrate preincubated for 3 hrs followed by substrate addition measured after 3 hrs by fluorescence assay. It is filed as cell-based.
For assay [5], the system named is HeLa. As to the kind of experiment: Ratio of IC50 for Class 1 histone deacetylase in human PC3 cells to IC50 for Class 1 histone deacetylase isolated from human HeLa cell nuclear extracts.
Assay [6] concerns PC-3. As to the kind of experiment: Selectivity ratio of IC50 for Class 2a histone deacetylase in human PC3 to IC50 for Class 1 histone deacetylase in human PC3 cells. It counts as cell-based.
The subject of assay [7] is PC-3. The assay can be described thus: Cytotoxicity against human PC3 cells assessed as growth inhibition after 48 hrs by MTT assay. It is filed as functional, cell-based. The conditions noted are these: PC-3, 48 h.
For another assay, the system named is K562. The assay can be described thus: Cytotoxicity against human K562 cells assessed as growth inhibition after 48 hrs by MTT assay. It counts as functional, cell-based. Particulars: K562, 48 h.
A further assay concerns HCT-116. As to the kind of experiment: Cytotoxicity against human HCT116 cells assessed as growth inhibition after 48 hrs by MTT assay. It counts as functional, cell-based. Particulars: HCT-116, 48 h.
The next assay relates to U-937. As to the kind of experiment: Cytotoxicity against human U937 cells assessed as growth inhibition after 48 hrs by MTT assay. Particulars: U-937, 48 h. It counts as functional, cell-based.
Assay [8] deals with HeLa. The assay can be described thus: Potency index, ratio of SAHA IC50 to compound IC50 for Class 1 histone deacetylase isolated from human HeLa cell nuclear extracts. It counts as cell-based.

This note sets out measurements from ChEMBL document CHEMBL3612065, “Development of N-hydroxybenzamide derivatives with indole-containing cap group as histone deacetylases inhibitors” (Bioorg Med Chem, 2015).

`CN(C)c1ccc(C(=O)N[C@@H](Cc2c[nH]c3ccccc23)C(=O)Nc2ccc(C(=O)NO)cc2)cc1` had an IC50 in assay [1] of 0.0047 µM.

As to `CCS(=O)(=O)N[C@@H](Cc1c[nH]c2ccccc12)C(=O)Nc1ccc(C(=O)NO)cc1`, in assay [1], half-maximal inhibition (IC50) was put at 1.09 µM. Still for that read-out and setting: as for `COc1cc(CCC(=O)Nc2ccc(C(=O)NO)cc2)ccc1OCc1cccs1`, the figure is 0.192 µM.

Regarding `CC(C)(C)OC(=O)N[C@H](C(=O)Nc1ccc(C(=O)NO)cc1)c1ccccc1`, the IC50 in assay [1] stood at 0.123 µM.

Compound `O=C(Cc1ccccc1)N[C@@H](Cc1c[nH]c2ccccc12)C(=O)Nc1ccc(C(=O)NO)cc1` came in with an IC50 in assay [1] of 0.0475 µM. `CC(=O)N[C@@H](Cc1c[nH]c2ccccc12)C(=O)Nc1ccc(C(=O)NO)cc1`: the midpoint of inhibition in assay [1], the IC50, lay at 0.425 µM.

As for `O=C(NO)c1ccc(NC(=O)[C@H](Cc2c[nH]c3ccccc23)NC(=O)c2ccc(C(F)(F)F)cc2)cc1`, the IC50 in [1] was 0.03 µM. The compound `CC(C)C(=O)N[C@@H](Cc1c[nH]c2ccccc12)C(=O)Nc1ccc(C(=O)NO)cc1` gave an IC50 in [1] of 0.526 µM. `O=C(NO)c1ccc(NC(=O)[C@H](Cc2c[nH]c3ccccc23)NC(=O)c2cccc(Cl)c2)cc1`: the IC50 in [1] was 0.0431 µM. In the case of `O=C(NO)c1ccc(NC(=O)[C@H](Cc2c[nH]c3ccccc23)NC(=O)c2ccccc2Cl)cc1`, the IC50 in assay [1] was determined as 0.157 µM. In assay [1], `CC(C)=CC(=O)N[C@@H](Cc1c[nH]c2ccccc12)C(=O)Nc1ccc(C(=O)NO)cc1` showed an IC50 of 0.139 µM. For the compound `O=C(NO)c1ccc(NC(=O)[C@H](Cc2c[nH]c3ccccc23)NS(=O)(=O)c2ccccc2)cc1`, the IC50 in [1] was found to be 0.178 µM. `O=C(NO)c1ccc(NC(=O)[C@H](Cc2c[nH]c3ccccc23)NC(=O)c2ccc(Br)cc2)cc1`: the concentration for half-maximal inhibition (IC50) in assay [1] was 0.0037 µM.

Regarding `O=C(NO)c1ccc(NC(=O)[C@H](Cc2c[nH]c3ccccc23)NC(=O)c2ccc(F)cc2)cc1`, the IC50 in assay [1] worked out at 0.0024 µM.

`O=C(CCCc1ccccc1)N[C@@H](Cc1c[nH]c2ccccc12)C(=O)Nc1ccc(C(=O)NO)cc1` showed an IC50 in assay [1] of 0.0987 µM. Regarding `O=C(NO)c1ccc(NC(=O)[C@H](Cc2c[nH]c3ccccc23)NC(=O)c2ccc(Cl)cc2Cl)cc1`, the IC50 in assay [1] stood at 0.0233 µM. In [1], `Cc1ccc(C(=O)N[C@@H](Cc2c[nH]c3ccccc23)C(=O)Nc2ccc(C(=O)NO)cc2)cc1` displayed a half-maximal inhibitory concentration (IC50) of 0.013 µM.

Take `CCCC(CCC)C(=O)N[C@@H](Cc1c[nH]c2ccccc12)C(=O)Nc1ccc(C(=O)NO)cc1`: the half-inhibitory concentration (IC50) in [1] is 0.211 µM. In the case of `CCC(CC)C(=O)N[C@@H](Cc1c[nH]c2ccccc12)C(=O)Nc1ccc(C(=O)NO)cc1`, the IC50 in assay [1] amounted to 0.333 µM. Same read-out and setting: to `O=C(NO)c1ccc(NC(=O)[C@H](Cc2c[nH]c3ccccc23)NC(=O)c2ccccc2)cc1` belongs 0.0238 µM. `O=C(NO)c1ccc(NC(=O)[C@H](Cc2c[nH]c3ccccc23)NC(=O)c2cc(Cl)cc(Cl)c2)cc1` yielded an IC50 in assay [1] of 0.0412 µM. On to `O=C(NO)c1ccc(NC(=O)[C@H](Cc2c[nH]c3ccccc23)NC(=O)c2ccc(Cl)cc2)cc1`, for which the half-maximal inhibitory concentration (IC50) in assay [2] came to 1.01 µM; with HEL, 1.97 µM; in the assay on PC-3 [3], 0.0332 µM; in the assay with PC-3 [4], 0.0601 µM; in [1], 0.0015 µM; in the assay on PC-3 [7] it was 0.74 µM. Also, the IC50 in the assay with K562 was 1.67 µM; in the assay on HCT-116 it was 1.45 µM; in the assay on U-937, 1.09 µM. Moreover, the entries for the “Ratio IC50” value in the assay on HeLa [5], in the assay with PC-3 [6] and in the assay on HeLa [8] were 22, 2 and 100, respectively.

For the compound `O=C(CCc1ccccc1)N[C@@H](Cc1c[nH]c2ccccc12)C(=O)Nc1ccc(C(=O)NO)cc1`, inhibition in [1] was half-maximal at 0.0597 µM (IC50).

The compound `COc1ccc(C(=O)N[C@@H](Cc2c[nH]c3ccccc23)C(=O)Nc2ccc(C(=O)NO)cc2)cc1` yielded an IC50 in [1] of 0.0086 µM. Consider `Cc1ccc(S(=O)(=O)N[C@@H](Cc2c[nH]c3ccccc23)C(=O)Nc2ccc(C(=O)NO)cc2)cc1`, for which 0.196 µM corresponded to half-maximal inhibition in [1] (IC50). Still for that read-out and setting: as for `CC(C)(C)OC(=O)N[C@@H](Cc1c[nH]c2ccccc12)C(=O)Nc1ccc(C(=O)NO)cc1`, the figure is 0.28 µM. Still for that read-out and setting: to `O=C(NO)c1ccc(NC(=O)[C@H](Cc2c[nH]c3ccccc23)NC(=O)c2ccncc2)cc1` belongs 0.1 µM.

Turning to `O=C(NO)c1ccc(NC(=O)[C@H](Cc2c[nH]c3ccccc23)NC(=O)c2ccco2)cc1`, the IC50 in assay [2] worked out at 3.76 µM; in the assay with HEL, 3.36 µM; in the assay with PC-3 [3] it was 0.333 µM; in the assay on PC-3 [4], 0.665 µM; in assay [1] it was 0.031 µM; with PC-3 [7] it was 3.34 µM. Moreover, the IC50 in the assay with K562 was 4.56 µM; in the assay on HCT-116 it was 2.77 µM; in the assay with U-937 it was 3.43 µM. Further, the “Ratio IC50” value was found to be 11 in the assay with HeLa [5] and 2 in the assay on PC-3 [6]. `O=C(/C=C/c1ccc(OC[C@H](Cc2c[nH]c3ccccc23)NC(=O)c2ccc(Cl)cc2)cc1)NO` came in with an IC50 in assay [1] of 0.0068 µM. In turn, `O=C(NO)c1ccc(NC(=O)[C@H](Cc2c[nH]c3ccccc23)NC(=O)c2ccc3ccccc3c2)cc1` gave an IC50 in [1] of 0.027 µM.

As a reminder, the IC50 is the midpoint of a concentration-inhibition curve.
